Assay results reported in PubChem BioAssay AID588370 (NMMLSC, 2011).
Active and inactive are the calls of the source.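 How the source made its calls: active means cytotoxic compounds, leaving cell viability under 88%; inactive means viability at or above 88%.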

The compounds below were run on U937 viability, trypan blue exclusion, 24 h (assay: cytotoxicity in U937 cells, cytotoxicity control for VLA-4 allosteric modulator project, cell-based, trypan blue (AID 588370)). Details: at 10 µM; active compounds read low.
In the case of `c1ccc2c(-c3ccc(OCCN4CCCCC4)cc3)c(-c3ccsc3)sc2c1`, the viability is reported as 96% (inactive).
`c1ccc2c(-c3ccc(OCCN4CCCC4)cc3)c(-c3ccsc3)sc2c1` was tested, and the viability was 93% (inactive).
In the case of `CN(C)CCOc1ccc(-c2c(-c3ccccc3)sc3ccccc23)cc1`, the viability is reported as 97% (inactive).
`c1ccc(-c2sc3ccccc3c2-c2ccc(OCCN3CCCC3)cc2)cc1` was tested, and the viability was 97% (inactive).
In the case of `COc1cccc(-c2sc3ccccc3c2-c2ccc(OCCN(C)C)cc2)c1`, the viability is reported as 97% (inactive).
`COc1cccc(-c2sc3ccccc3c2-c2ccc(OCCN3CCCC3)cc2)c1` showed a viability of 84%.
For `COc1ccc(-c2sc3ccccc3c2-c2ccc(OCCN(C)C)cc2)cc1`, the viability was 96% (inactive).
